Test results as given in patent US9833497B2, “Human originated EGF domain proteins and use of the same” (CHENGDU SOURCEBIO LIMITED-LIABILITY COMPANY, priority 2013, dated 2017).

How the values were obtained:
Assay type in all cases: cell-based
Proteus vulgaris = test: MIC against Gram-negative bacteria: Proteus vulgaris; conditions: for MIC (μg/mL) P. vulgaris / MIC against P. vulgaris: 5×10^5 CFU/mL; for MIC against P. vulgaris: Proteus vulgaris
Outline: (§1)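 Inocula prepared by growing LB cultures at 37° C to 0.5 McFarland, centrifuging at 4000×g, and resuspending in fresh medium. Final density 5×10^5 CFU/mL per well with two-fold dilutions of purified EGF domain protein; shaking incubation at 37° C.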

Citrobacter diversus = test: MIC against Gram-negative bacteria: Citrobacter diversus; conditions: for MIC (μg/mL) C. diversus / MIC against C. diversus: 5×10^5 CFU/mL; for MIC against C. diversus: Citrobacter diversus
Outline: as §1

Moraxella catarrhalis = test: MIC against Gram-negative bacteria: Moraxella catarrhalis; conditions: for MIC (μg/mL) M. catarrhalis / MIC against M. catarrhalis: 5×10^5 CFU/mL; for MIC against M. catarrhalis: Moraxella catarrhalis
Outline: as §1

Serratia marcescens = test: MIC against Gram-negative bacteria: Serratia marcescens; conditions: for MIC (μg/mL) S. marcescens / MIC against S. marcescens: 5×10^5 CFU/mL; for MIC against S. marcescens: Serratia marcescens
Outline: as §1

Pseudomonas aeruginosa = test: MIC against Gram-negative bacteria: Pseudomonas aeruginosa; conditions: for MIC (μg/mL) P. aeruginosa / MIC against P. aeruginosa: 5×10^5 CFU/mL; for MIC against P. aeruginosa: Pseudomonas aeruginosa
Outline: as §1

Klebsiella pneumonia = test: MIC against Gram-negative bacteria: Klebsiella pneumonia; conditions: for MIC (μg/mL) K. pneumonia / MIC against K. pneumonia: 5×10^5 CFU/mL; for MIC against K. pneumonia: Klebsiella pneumonia
Outline: as §1

E. coli DH5α = test: Antibacterial activity: MIC and growth curve against E. coli DH5α in 96-well plate; conditions: minimal inhibitory concentration against E. coli DH5α; 96-well plate, 5×10^5 CFU/mL, 37° C., judged after 8 h
Outline: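 Log-phase bacteria (OD600 ~0.5) resuspended in LB at 5×10^5 CFU/mL, exposed to recombinant protein at 50, 25, 12.5 μg/mL final in triplicate, 37 °C shaking at 175 rpm. OD600 read every 30 min; MIC is lowest concentration showing no growth.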

Proteus mirabilis = test: MIC against Gram-negative bacteria: Proteus mirabilis; conditions: for MIC (μg/mL) P. mirabilis / MIC against P. mirabilis: 5×10^5 CFU/mL; for MIC against P. mirabilis: Proteus mirabilis
Outline: as §1

Enterobacter cloacae = test: MIC against Gram-negative bacteria: Enterobacter cloacae; conditions: for MIC (μg/mL) E. cloacae / MIC against E. cloacae: 5×10^5 CFU/mL; for MIC against E. cloacae: Enterobacter cloacae
Outline: as §1

E. coli BL21 = test: MIC against Gram-negative bacteria: E. coli BL21; conditions: E. coli BL21; for MIC (μg/mL) E. coli BL21 / MIC against E. coli BL21: 5×10^5 CFU/mL
Outline: as §1

Aeromonas hydrophila = test: MIC against Gram-negative bacteria: Aeromonas hydrophila; conditions: for MIC (μg/mL) A. hydrophila / MIC against A. hydrophila: 5×10^5 CFU/mL; for MIC against A. hydrophila: Aeromonas hydrophila
Outline: as §1

[1] = P. vulgaris, 10 h cultivation at 37° C.
[2] = C. diversus, 10 h cultivation at 37° C.
[3] = M. catarrhalis, 10 h cultivation at 37° C.
[4] = S. marcescens, 10 h cultivation at 37° C.
[5] = P. aeruginosa, 10 h cultivation at 37° C.
[6] = K. pneumonia, 10 h cultivation at 37° C.
[7] = P. mirabilis, 10 h cultivation at 37° C.
[8] = E. cloacae, 10 h cultivation at 37° C.
[9] = A. hydrophila, 10 h cultivation at 37° C.

PRT249 (EAICAKPCLNGGVCVRPDQCECAPGWGGKHCH; listed as Homo sapiens)
MIC (μg/mL) P. vulgaris (Proteus vulgaris; [1]): 12.5 µg/mL | MIC (μg/mL) C. diversus (Citrobacter diversus; [2]): 25 µg/mL | MIC (μg/mL) M. catarrhalis (Moraxella catarrhalis; [3]): 12.5 µg/mL | MIC (μg/mL) S. marcescens (Serratia marcescens; [4]): 12.5 µg/mL | MIC (μg/mL) P. aeruginosa (Pseudomonas aeruginosa; [5]): 12.5 µg/mL | MIC (μg/mL) K. pneumonia (Klebsiella pneumonia; [6]): 12.5 µg/mL | MIC (E. coli DH5α): 25 µg/mL | MIC (μg/mL) P. mirabilis (Proteus mirabilis; [7]): 12.5 µg/mL | MIC (μg/mL) E. cloacae (Enterobacter cloacae; [8]): 25 µg/mL | MIC (μg/mL) E. coli BL21 (E. coli BL21; 10 h cultivation at 37° C.): 12.5 µg/mL | MIC (μg/mL) A. hydrophila (Aeromonas hydrophila; [9]): 12.5 µg/mL

PRT1464 (CNCDKTGTINGSLLCNKSTGQCPCKLGVTGLRCNQCEPHRYNLTIDNFQHCQM; listed as Homo sapiens)
MIC against P. vulgaris (Proteus vulgaris; 10 h cultivation at 37° C.): 25 µg/mL | MIC against C. diversus (Citrobacter diversus; 10 h cultivation at 37° C.): 12.5 µg/mL | MIC against M. catarrhalis (Moraxella catarrhalis; 10 h cultivation at 37° C.): 12.5 µg/mL | MIC against S. marcescens (Serratia marcescens; 10 h cultivation at 37° C.): 50 µg/mL | MIC against P. aeruginosa (Pseudomonas aeruginosa; 10 h cultivation at 37° C.): 12.5 µg/mL | MIC against K. pneumonia (Klebsiella pneumonia; 10 h cultivation at 37° C.): 12.5 µg/mL | MIC (E. coli DH5α): 12.5 µg/mL | MIC against P. mirabilis (Proteus mirabilis; 10 h cultivation at 37° C.): 12.5 µg/mL | MIC against E. cloacae (Enterobacter cloacae; 10 h cultivation at 37° C.): 12.5 µg/mL | MIC against E. coli BL21 (E. coli BL21; 10 h cultivation at 37° C.): 25 µg/mL | MIC against A. hydrophila (Aeromonas hydrophila; 10 h cultivation at 37° C.): 12.5 µg/mL

PRT849 (CPCSAVTSTGSCSIKSSELEPECDQCKDGYIGPNCNKCENGYYNFDSICRK; listed as Homo sapiens)
MIC (μg/mL) P. vulgaris (Proteus vulgaris; [1]): 12.5 µg/mL | MIC (μg/mL) C. diversus (Citrobacter diversus; [2]): 12.5 µg/mL | MIC (μg/mL) M. catarrhalis (Moraxella catarrhalis; [3]): 25 µg/mL | MIC (μg/mL) S. marcescens (Serratia marcescens; [4]): 25 µg/mL | MIC (μg/mL) P. aeruginosa (Pseudomonas aeruginosa; [5]): 12.5 µg/mL | MIC (μg/mL) K. pneumonia (Klebsiella pneumonia; [6]): 12.5 µg/mL | MIC (E. coli DH5α): 12.5 µg/mL | MIC (μg/mL) P. mirabilis (Proteus mirabilis; [7]): 12.5 µg/mL | MIC (μg/mL) E. cloacae (Enterobacter cloacae; [8]): 12.5 µg/mL | MIC (μg/mL) E. coli BL21 (E. coli BL21; 10 h cultivation at 37° C.): 12.5 µg/mL | MIC (μg/mL) A. hydrophila (Aeromonas hydrophila; [9]): 25 µg/mL

PRT876 (TAKPCLSNPCKNNGMCRDGWNRYVCDCSGTGYLGRSCE; listed as Homo sapiens)
MIC (μg/mL) P. vulgaris (Proteus vulgaris; [1]): 25 µg/mL | MIC (μg/mL) C. diversus (Citrobacter diversus; [2]): 25 µg/mL | MIC (μg/mL) M. catarrhalis (Moraxella catarrhalis; [3]): 12.5 µg/mL | MIC (μg/mL) S. marcescens (Serratia marcescens; [4]): 25 µg/mL | MIC (μg/mL) P. aeruginosa (Pseudomonas aeruginosa; [5]): 12.5 µg/mL | MIC (μg/mL) K. pneumonia (Klebsiella pneumonia; [6]): 12.5 µg/mL | MIC (E. coli DH5α): 12.5 µg/mL | MIC (μg/mL) P. mirabilis (Proteus mirabilis; [7]): 25 µg/mL | MIC (μg/mL) E. cloacae (Enterobacter cloacae; [8]): 25 µg/mL | MIC (μg/mL) E. coli BL21 (E. coli BL21; 10 h cultivation at 37° C.): 12.5 µg/mL | MIC (μg/mL) A. hydrophila (Aeromonas hydrophila; [9]): 12.5 µg/mL

PRT1228 (CPPCPKYASCHNSTHCTCEDGFRARSGRTYFHDSSEKCE; listed as Homo sapiens)
MIC against P. vulgaris (Proteus vulgaris; 96-well plate, 37° C., 10 h): 25 µg/mL | MIC against C. diversus (Citrobacter diversus; 96-well plate, 37° C., 10 h): 50 µg/mL | MIC against M. catarrhalis (Moraxella catarrhalis; 96-well plate, 37° C., 10 h): 25 µg/mL | MIC against S. marcescens (Serratia marcescens; 96-well plate, 37° C., 10 h): 50 µg/mL | MIC against P. aeruginosa (Pseudomonas aeruginosa; 96-well plate, 37° C., 10 h): 50 µg/mL | MIC against K. pneumonia (Klebsiella pneumonia; 96-well plate, 37° C., 10 h): 25 µg/mL | MIC (E. coli DH5α): 12.5 µg/mL | MIC against P. mirabilis (Proteus mirabilis; 96-well plate, 37° C., 10 h): 12.5 µg/mL | MIC against E. cloacae (Enterobacter cloacae; 96-well plate, 37° C., 10 h): 12.5 µg/mL | MIC against E. coli BL21 (E. coli BL21; 96-well plate, 37° C., 10 h): 25 µg/mL | MIC against A. hydrophila (Aeromonas hydrophila; 96-well plate, 37° C., 10 h): 25 µg/mL

PRT927 (DIDDCSSTPCLNGAKCIDHPNGYECQCATGFTGVLCE; listed as Homo sapiens)
MIC (Proteus vulgaris; [1]): 12.5 µg/mL | MIC (Citrobacter diversus; [2]): 12.5 µg/mL | MIC (Moraxella catarrhalis; [3]): 50 µg/mL | MIC (Serratia marcescens; [4]): 50 µg/mL | MIC (Pseudomonas aeruginosa; [5]): 25 µg/mL | MIC (Klebsiella pneumonia; [6]): 12.5 µg/mL | MIC (E. coli DH5α): 25 µg/mL | MIC (Proteus mirabilis; [7]): 25 µg/mL | MIC (Enterobacter cloacae; [8]): 25 µg/mL | MIC (E. coli BL21; 10 h cultivation at 37° C.): 50 µg/mL | MIC (Aeromonas hydrophila; [9]): 50 µg/mL
